Assay results from patent US20260184691A1, “INHIBITORS AND DEGRADERS OF PIP4K PROTEIN” (Larkspur Biosciences, Inc., priority 2022, published 2026).

Each compound was assayed against T1, endogenous PIP4K2C C-terminally tagged with HiBiT peptide in MOLT-4 cells (Homo sapiens, UniProt Q8TBX8) (assay: HiBiT PIP4K2C degradation assay in MOLT-4 cells). Settings: 24 hours, 10-point dose response, top concentration 10 micromolar, read-out: HiBIT-degradation MOLT4 PIP4k2C 24 hours DC50.
T1 construct: to C-terminally tag endogenous PIP4K2C with HiBiT peptide; host or cells: MOLT-4 (CRISPR-Cas9 knock-in clone)
T1 sequence (Q8TBX8 1-421): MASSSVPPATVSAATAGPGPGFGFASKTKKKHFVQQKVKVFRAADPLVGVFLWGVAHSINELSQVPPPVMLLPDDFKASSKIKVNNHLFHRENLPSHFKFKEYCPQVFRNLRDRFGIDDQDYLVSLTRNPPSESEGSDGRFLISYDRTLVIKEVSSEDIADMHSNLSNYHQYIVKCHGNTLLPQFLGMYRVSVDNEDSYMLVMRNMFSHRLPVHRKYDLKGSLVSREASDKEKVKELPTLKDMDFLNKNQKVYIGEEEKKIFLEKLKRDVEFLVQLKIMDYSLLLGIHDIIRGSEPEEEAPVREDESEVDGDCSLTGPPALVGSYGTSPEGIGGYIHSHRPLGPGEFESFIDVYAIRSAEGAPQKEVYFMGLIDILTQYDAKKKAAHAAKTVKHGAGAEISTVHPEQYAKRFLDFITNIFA
Assay type: cell-based
Method in brief: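 Cells bearing C-terminal HiBiT knock-in were exposed to a 10-point, 3-fold dilution series (top 10 micromolar, duplicate) for 24 h at 37C, 5% CO2. Remaining tagged protein read by lytic HiBiT luminescence; DC50 from Hill-equation fit.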

Row | DC50 [nM] | Compound
1 | < 500 | CC(=O)N1CCCC(n2cc(-c3nc(Nc4cncc(N5CCC6(CCN(C(=O)CN7CCC(c8ccc(NC9CCC(=O)NC9=O)cc8)CC7)CC6)C5=O)c4)ncc3Cl)cn2)C1 (centres unmarked) [Compound 197, 3-((4-(1-(2-(2-(5-((4-(1-(1-acetylpiperidin-3-yl)-1H-pyrazol-4-yl)-5-chloropyrimidin-2-yl)amino)pyridin-3-yl)-1-oxo-2,8-diazaspiro[4.5]decan-8-yl)-2-oxoethyl)piperidin-4-yl)phenyl)amino)piperidine-2,6-dione]
2 | < 500 | O=C1CCC(N2Cc3cc(OCCCCCCCCCC(=O)N4CCC5(CC4)CCN(c4cncc(Nc6ncc(Cl)c(-c7cccc(-c8ccccc8)c7)n6)c4)C5=O)ccc3C2=O)C(=O)N1 (centres unmarked) [Compound 61, 3-(5-((10-(2-(5-((4-([1,1′-biphenyl]-3-yl)-5-chloropyrimidin-2-yl)amino)pyridin-3-yl)-1-oxo-2,8-diazaspiro[4.5]decan-8-yl)-10-oxodecyl)oxy)-1-oxoisoindolin-2-yl)piperidine-2,6-dione]
3 | < 500 | O=C1CCC(Nc2ccc(C3CCN(CC(=O)N4CCC5(CC4)CCN(c4cncc(Nc6ncc(Cl)c(-c7cccc(N8CCCCC8)c7)n6)c4)C5=O)CC3)cc2)C(=O)N1 (centres unmarked) [Compound 185, 3-[4-[1-[2-[2-[5-[[5-chloro-4-[3-(1-piperidyl)phenyl]pyrimidin-2-yl]amino]-3-pyridyl]-1-oxo-2,8-diazaspiro[4.5]decan-8-yl]-2-oxo-ethyl]-4-piperidyl]anilino]piperidine-2,6-dione]
4 | < 500 | O=C1CCC(N2Cc3cc(NCCCCC(=O)N4CCC5(CC4)CCN(c4cncc(Nc6ncc(Cl)c(-c7cccc(-c8ccccc8)c7)n6)c4)C5=O)ccc3C2=O)C(=O)N1 (centres unmarked) [Compound 84, 3-(5-((5-(2-(5-((4-([1,1′-biphenyl]-3-yl)-5-chloropyrimidin-2-yl)amino)pyridin-3-yl)-1-oxo-2,8-diazaspiro[4.5]decan-8-yl)-5-oxopentyl)amino)-1-oxoisoindolin-2-yl)piperidine-2,6-dione]
5 | < 500 | O=C1CCC(Nc2ccc(N3CCC(CC(=O)N4CCC5(CC4)CCN(c4cncc(Nc6ncc(Cl)c(N7CCC[C@@H](O)C7)n6)c4)C5=O)CC3)cc2)C(=O)N1 (stereo partly drawn) [Compound 176, 3-((4-(4-(2-(2-(5-((5-chloro-4-((R)-3-hydroxypiperidin-1-yl)pyrimidin-2-yl)amino)pyridin-3-yl)-1-oxo-2,8-diazaspiro[4.5]decan-8-yl)-2-oxoethyl)piperidin-1-yl)phenyl)amino)piperidine-2,6-dione]
6 | < 500 | O=C1CCC(N2Cc3cc(OC4CCN(CC(=O)N5CCC6(CC5)CCN(c5cncc(Nc7ncc(Cl)c(-c8cccc(C9CC9)c8)n7)c5)C6=O)CC4)ccc3C2=O)C(=O)N1 (centres unmarked) [Compound 205, 3-[5-[[1-[2-[2-[5-[[5-chloro-4-(3-cyclopropylphenyl)pyrimidin-2-yl]amino]-3-pyridyl]-1-oxo-2,8-diazaspiro[4.5]decan-8-yl]-2-oxo-ethyl]-4-piperidyl]oxy]-1-oxo-isoindolin-2-yl]piperidine-2,6-dione]
7 | < 500 | O=C1CCC(Nc2ccc(C3CCN(CCN4CCC5(CC4)CCN(c4cncc(Nc6ncc(Cl)c(-c7cccc(C8CC8)c7)n6)c4)C5=O)CC3)cc2)C(=O)N1 (centres unmarked) [Compound 211, 3-((4-(1-(2-(2-(5-((5-chloro-4-(3-cyclopropylphenyl)pyrimidin-2-yl)amino)pyridin-3-yl)-1-oxo-2,8-diazaspiro[4.5]decan-8-yl)ethyl)piperidin-4-yl)phenyl)amino)piperidine-2,6-dione]
8 | < 500 | O=C(CCOc1cccc2c1C(=O)N(C1CCC(=O)NC1=O)C2=O)NCCCCCCCCC(=O)Nc1cncc(Nc2ncc(Cl)c(-c3cccc(-c4ccccc4)c3)n2)c1 (centres unmarked) [Compound 89, N-(5-((4-([1,1′-biphenyl]-3-yl)-5-chloropyrimidin-2-yl)amino)pyridin-3-yl)-9-(3-((2-(2,6-dioxopiperidin-3-yl)-1,3-dioxoisoindolin-4-yl)oxy)propanamido)nonanamide]
